# Reference: PubChem BioAssay (NCI)
#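 A five-concentration, 48-hour dose response in 96-well plates underlies each endpoint, interpolated linearly between surrounding concentrations. Here, GI50 denotes the concentration required for 50% inhibition of growth. TGI denotes the concentration required for complete inhibition of growth.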
# How the values were obtained:
# Experiment in all cases: NCI tumour cell line growth inhibition, 48 h
# A549 NSCLC = tested on: A549 NSCLC
# HCT-15 colon = tested on: HCT-15 colon
# LOX IMVI melanoma = tested on: LOX IMVI melanoma
# SK-MEL-2 melanoma = tested on: SK-MEL-2 melanoma
# OVCAR-3 ovarian = tested on: OVCAR-3 ovarian
# BT-549 breast = tested on: BT-549 breast
# M14 melanoma = tested on: M14 melanoma
# NCI-H23 lung = tested on: NCI-H23 lung
# MDA-MB-435 = tested on: MDA-MB-435
# COLO 205 colon = tested on: COLO 205 colon
Compound,TGI (A549 NSCLC),TGI (HCT-15 colon),TGI (LOX IMVI melanoma),TGI (SK-MEL-2 melanoma),TGI (OVCAR-3 ovarian),TGI (BT-549 breast),TGI (M14 melanoma),TGI (NCI-H23 lung),TGI (MDA-MB-435),TGI (COLO 205 colon),GI50 (A549 NSCLC),GI50 (HCT-15 colon),GI50 (OVCAR-3 ovarian),GI50 (MDA-MB-435),GI50 (COLO 205 colon)
CC(C)C(C/C=C1/CC(CO)(COC(=O)CC(C(C)C)C(C)C)OC1=O)C(C)C (stereo unspecified),14.6 µM,30.3 µM,20.8 µM,30.1 µM,26.7 µM,28.7 µM,26.8 µM,29.9 µM,16.9 µM,3.33 µM,–,–,–,–,–
COc1cccc2cc(C(N)=O)c(=N)oc12,> 100 µM,> 100 µM,> 100 µM,60.7 µM,> 100 µM,> 100 µM,> 100 µM,> 100 µM,> 100 µM,> 100 µM,–,–,–,–,–
COc1cc(N=NN(C)C)c(C(C)c2c3cc(OC)c(OC)cc3cc[n+]2C)cc1OC (stereo unspecified),> 100 µM,> 100 µM,> 100 µM,87.5 µM,> 100 µM,> 100 µM,> 100 µM,> 100 µM,> 100 µM,34.4 µM,–,–,–,–,–
C=C=C(C)[Si](C)(C)C,> 100 µM,> 100 µM,> 100 µM,> 100 µM,> 100 µM,–,> 100 µM,> 100 µM,> 100 µM,> 100 µM,–,–,–,–,–
COc1cc(OC)c2c(c1OC)OCC(Cc1ccc(O)cc1)C2=O (stereo unspecified),> 25 µM,> 25 µM,> 25 µM,> 25 µM,> 25 µM,–,> 25 µM,> 25 µM,> 25 µM,> 25 µM,–,–,–,–,–
c1ccc(N=C2SC(=NNc3ccccc3)SC2=Nc2ccccc2)cc1,> 100 µM,> 100 µM,> 100 µM,> 100 µM,–,–,–,> 100 µM,> 100 µM,> 100 µM,–,–,–,–,–
CCOP(=O)(Nc1ccc(-c2ccccc2)cc1)OCC,> 100 µM,> 100 µM,–,> 100 µM,> 100 µM,> 100 µM,> 100 µM,> 100 µM,> 100 µM,> 100 µM,–,–,–,–,–
NNC(=O)c1c(Cl)c(Cl)c(Cl)c(Cl)c1-c1nc2ccccc2[nH]1,45.7 µM,40.9 µM,30.3 µM,29.4 µM,24.4 µM,46.5 µM,23.6 µM,59.5 µM,6.38 µM,62 µM,–,–,–,–,–
O=C1NC2(CCCCC2)N=C2C(Cl)CCCC12Cl (stereo unspecified),> 100 µM,> 100 µM,> 100 µM,> 100 µM,> 100 µM,> 100 µM,> 100 µM,> 100 µM,> 100 µM,> 100 µM,–,–,–,–,–
O=C(CN1CCN(C(=O)OCc2ccccc2)CCN(CC(=O)N2CCCCC2)CCN(C(=O)OCc2ccccc2)CC1)N1CCCCC1,> 53.5 µM,> 50.6 µM,28.1 µM,40.2 µM,22.8 µM,> 50.5 µM,25 µM,> 100 µM,31.2 µM,27.2 µM,–,–,–,–,–
CCC1CC2CN3CCc4c([nH]c5c(-c6c(OC)ccc7c8c([nH]c67)[C@]6(C(=O)OC)CC7CC(CC)C6N(CC8)C7)c(O)ccc45)[C@](C(=O)OC)(C2)C13 (stereo partly specified),36.9 µM,31.4 µM,28 µM,47.2 µM,30.9 µM,33.7 µM,78.2 µM,34.4 µM,23.6 µM,24.7 µM,–,–,–,–,–
Cc1ccc(/C=C/C(=O)c2c([O-])on[n+]2-c2ccccc2)cc1,25 µM,4.68 µM,3.74 µM,5.39 µM,6.92 µM,6.09 µM,5.98 µM,17.5 µM,–,7.35 µM,–,–,–,–,–
CC(=O)O[C@H]1CC[C@]2(C)[C@H]3CC[C@@H]4[C@H]5[C@H](C(C)C)CC[C@]5(C(=O)OCC(CO)(CO)N=C(N)N)CC[C@@]4(C)[C@]3(C)CC[C@H]2C1(C)C,3.28 µM,3.71 µM,–,–,3.2 µM,–,–,–,3.11 µM,3.55 µM,1.71 µM,1.79 µM,1.67 µM,1.64 µM,1.88 µM
O=C(Cn1nc(Br)c(Br)c1Br)c1ccccc1,89.7 µM,> 100 µM,32.2 µM,56.7 µM,> 100 µM,80.4 µM,92.1 µM,94.3 µM,> 100 µM,36.9 µM,–,–,–,–,–
CN(C)CCn1c2ccccc2c2nc3cc4ccccc4cc3nc21,16.9 µM,18.7 µM,15.6 µM,24.8 µM,28.2 µM,–,16.4 µM,24 µM,–,12.3 µM,–,–,–,–,–
CC(=O)O[C@H]1C[C@]2(C)C(CCC3O[C@@]32C)[C@@]2(CC(c3ccoc3)OC2O)[C@@H]1C (stereo partly specified),> 100 µM,> 100 µM,> 100 µM,> 100 µM,> 100 µM,> 100 µM,> 100 µM,> 100 µM,> 100 µM,> 100 µM,–,–,–,–,–
CCc1n[nH]c(=O)n1N1C(=O)C2CC=CCC2C1=O (stereo unspecified),> 100 µM,> 100 µM,> 100 µM,> 100 µM,> 100 µM,> 100 µM,> 100 µM,> 100 µM,> 100 µM,> 100 µM,–,–,–,–,–
Cc1ccc2c(c1)NC(=O)CCSSCCC(=O)N2,> 100 µM,> 100 µM,> 100 µM,> 100 µM,> 100 µM,> 100 µM,> 100 µM,> 100 µM,> 100 µM,> 100 µM,–,–,–,–,–
O=C1c2ccccc2CC12Cc1cc3c(cc1C2=O)CCC3 (stereo unspecified),> 100 µM,> 100 µM,> 100 µM,> 100 µM,> 100 µM,–,> 100 µM,> 100 µM,> 100 µM,–,–,–,–,–,–
CN(C)CCNc1ccc([N+](=O)[O-])c2nc3ccccc3c(N)c12,4.23 µM,4.01 µM,2.11 µM,3.53 µM,3.32 µM,–,1.94 µM,6.55 µM,2.61 µM,1.84 µM,–,–,–,–,–
CCCNC(=S)N/N=C/c1cccc(C)n1,73.5 µM,> 100 µM,> 100 µM,58.9 µM,–,–,27.2 µM,> 100 µM,> 100 µM,> 100 µM,–,–,–,–,–
